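96-well plates; 48 h exposure; 5 concentrations. Endpoints by linear interpolation between flanking doses. Not reached: highest tested concentration assigned. GI50 marks 50% less growth. TGI marks complete inhibition of growth.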
Tests used:
Experiment in all cases: NCI tumour cell line growth inhibition, 48 h
[1] = test system: ACHN renal
[2] = test system: SN12C renal
[3] = test system: SR leukemia
[4] = test system: K-562 leukemia
[5] = test system: 786-0 renal
[6] = test system: KM12 colon
[7] = test system: SK-MEL-5 melanoma
[8] = test system: UACC-257 melanoma
[9] = test system: SF-295 CNS
[10] = test system: NCI-H522 lung
[11] = test system: BT-549 breast
[12] = test system: SF-539 CNS
[13] = test system: DU-145 prostate
[14] = test system: SNB-75 CNS
[15] = test system: HCT-15 colon
[16] = test system: EKVX NSCLC
[17] = test system: NCI-H226 lung
[18] = test system: UACC-62 melanoma
[19] = test system: M14 melanoma
[20] = test system: SW-620 colon
[21] = test system: T-47D breast
[22] = test system: SK-MEL-2 melanoma
[23] = test system: A549 NSCLC
[24] = test system: HCT-116 colon
[25] = test system: LOX IMVI melanoma
[26] = test system: COLO 205 colon
[27] = test system: NCI-H23 lung
[28] = test system: HS 578T breast
[29] = test system: MALME-3M melanoma
[30] = test system: IGROV1 ovarian
[31] = test system: SF-268 CNS
[32] = test system: UO-31 renal
[33] = test system: CCRF-CEM leukemia
[34] = test system: HT29 colon
[35] = test system: HOP-92 NSCLC
[36] = test system: SK-OV-3 ovarian
[37] = test system: MOLT-4 leukemia
[38] = test system: SNB-19 CNS
[39] = test system: OVCAR-8 ovarian
[40] = test system: RXF 393 renal
[41] = test system: MDA-MB-231 breast
[42] = test system: A498 renal
[43] = test system: CAKI-1 renal
[44] = test system: OVCAR-3 ovarian
[45] = test system: HL-60(TB) leukemia
[46] = test system: U251 CNS
[47] = test system: MCF7 breast
[48] = test system: SK-MEL-28 melanoma
[49] = test system: OVCAR-4 ovarian
[50] = test system: HCC-2998 colon
[51] = test system: PC-3 prostate
[52] = test system: NCI/ADR-RES ovarian
[53] = test system: TK-10 renal
[54] = test system: MDA-MB-435
[55] = test system: OVCAR-5 ovarian
[56] = test system: HOP-62 NSCLC
[57] = test system: RPMI-8226 leukemia
[58] = test system: NCI-H460 lung

Compound `NCCCCCCn1c2c(c3ccccc3c1=O)C(=O)c1ccccc1-2` has a GI50 [1] of 526 nM, a TGI [1] of 2710 nM and a GI50 [2] of 1330 nM. For the same compound, the TGI [2] was 6090 nM, the GI50 [3] was 349 nM and the TGI [3] was 2090 nM. The GI50 [4] was 705 nM, the TGI [4] was 5350 nM and the GI50 [5] was 603 nM. For the same compound, the TGI [5] was greater than 100000 nM, the GI50 [6] was 1380 nM and the TGI [6] was 6900 nM. It also gave a GI50 [7] of 1300 nM, a TGI [7] of 2750 nM and a GI50 [8] of 2360 nM. For the same compound, the TGI [8] was 5800 nM, the GI50 [9] was 1470 nM and the TGI [9] was 5560 nM. For the same compound, the GI50 [10] was 1170 nM, the TGI [10] was 2880 nM and the GI50 [11] was 1800 nM. The TGI [11] was 4730 nM, the GI50 [12] was 1240 nM and the TGI [12] was 3590 nM. For the same compound, the GI50 [13] was 608 nM, the TGI [13] was greater than 100000 nM and the GI50 [14] was 1750 nM. For the same compound, the TGI [14] was 7720 nM, the GI50 [15] was 717 nM and the TGI [15] was 5860 nM. For the same compound, the GI50 [16] was 10300 nM, the TGI [16] was 28800 nM and the GI50 [17] was 1080 nM. The TGI [17] was 3070 nM, the GI50 [18] was 1630 nM and the TGI [18] was 3500 nM. For the same compound, the GI50 [19] was 2280 nM, the TGI [19] was 5000 nM and the GI50 [20] was 613 nM. The TGI [20] was 3160 nM, the GI50 [21] was 1850 nM and the TGI [21] was 5930 nM. For the same compound, the GI50 [22] was 1870 nM, the TGI [22] was 3540 nM and the GI50 [23] was 1220 nM. It also gave a TGI [23] of 25800 nM, a GI50 [24] of 909 nM and a TGI [24] of 6110 nM. For the same compound, the GI50 [25] was 1120 nM, the TGI [25] was 2990 nM and the GI50 [26] was 1600 nM. For the same compound, the TGI [26] was 13700 nM, the GI50 [27] was 1500 nM and the TGI [27] was 6540 nM. The GI50 [28] was 2510 nM, the TGI [28] was 11100 nM and the GI50 [29] was 1910 nM. For the same compound, the TGI [29] was 4610 nM, the GI50 [30] was 1070 nM and the TGI [30] was 4310 nM. It also gave a GI50 [31] of 2300 nM, a TGI [31] of 16200 nM and a GI50 [32] of 442 nM. For the same compound, the TGI [32] was 1850 nM, the GI50 [33] was 512 nM and the TGI [33] was 3210 nM. The GI50 [34] was 1200 nM, the TGI [34] was 4420 nM and the GI50 [35] was 2570 nM. The TGI [35] was 16000 nM, the GI50 [36] was 720 nM and the TGI [36] was 7420 nM. For the same compound, the GI50 [37] was 237 nM, the TGI [37] was 972 nM and the GI50 [38] was 1190 nM. The TGI [38] was 10100 nM, the GI50 [39] was 1540 nM and the TGI [39] was 11300 nM. It also gave a GI50 [40] of 12000 nM, a TGI [40] of 64800 nM and a GI50 [41] of 1980 nM. It also gave a TGI [41] of 5460 nM, a GI50 [42] of 675 nM and a TGI [42] of 2970 nM. For the same compound, the GI50 [43] was 1960 nM, the TGI [43] was 8250 nM and the GI50 [44] was 1980 nM. It also gave a TGI [44] of 6240 nM, a GI50 [45] of 266 nM and a TGI [45] of 1420 nM. For the same compound, the GI50 [46] was 1430 nM, the TGI [46] was 12300 nM and the GI50 [47] was 744 nM. The TGI [47] was 3610 nM, the GI50 [48] was 1900 nM and the TGI [48] was 3760 nM. The GI50 [49] was 2190 nM, the TGI [49] was 7240 nM and the GI50 [50] was 2250 nM. The TGI [50] was 14300 nM, the GI50 [51] was 2120 nM and the TGI [51] was 11800 nM. For the same compound, the GI50 [52] was 2460 nM, the TGI [52] was 11700 nM and the GI50 [53] was 1650 nM. For the same compound, the TGI [53] was 3820 nM, the GI50 [54] was 2050 nM and the TGI [54] was 4760 nM. The GI50 [55] was 1880 nM, the TGI [55] was 4600 nM and the GI50 [56] was 1280 nM. The TGI [56] was 4500 nM, the GI50 [57] was 1530 nM and the TGI [57] was 6070 nM. For the same compound, the GI50 [58] was 415 nM and the TGI [58] was 11300 nM.
